This note sets out measurements from patent US7459583B2, “Method for providing a cathartic effect” (Sucampo AG, priority 2001, dated 2008).

The subject of the test is Male Wistar rats. The experiment in a line: Enteropooling effect (intestinal fluid volume) in fasted rats. It is filed as in vivo, rat. The conditions noted are these: intestinal fluid volume 30 min after administration, dose yielding a 50% increase relative to vehicle control; for ED50: Rattus norvegicus, 0.5 h. The procedure: Male Wistar rats (Crj Wistar Rat, body weight: 180-200 g) were used. Animals were fasted for 24 hours with free access to water. 5 mL/kg of distilled water containing the compound 5, PGE1 or PGE2 was orally administrated (p.o.), or 2 mL/kg of physiological saline containing the compound 5 was injected intravenously (i.v.) to the animals. Thirty minutes after the administration, the animals were euthanized by cervical dislocation, and the abdominal cavity was opened surgically. The intestinal fluid was collected and its volume was measured. The dose of test substance yielding a 50% increase in intestinal fluid volume relative to the control group, which was received the vehicle only, was defined as the ED50 value.

With `CCCCC(F)(F)C(O)CC[C@H]1[C@H](O)CC(=O)[C@@H]1CCCCCCC(=O)O` (stereo partly shown) [Compound 5, 13,14-dihydro-15RS-hydroxy-16,16-difluoro-PGE1], the ED50 by setting is: (iv, i.v. in physiological saline) 0.88 µg/kg; (po, p.o. in distilled water) 0.6 µg/kg.

In the case of `CCCCC[C@H](O)/C=C/[C@H]1[C@H](O)CC(=O)[C@@H]1CCCCCCC(=O)O` [PGE1], the “Enteropooling ED50” value (p.o. in distilled water) is 420 µg/kg.

As for `CCCCC[C@H](O)/C=C/[C@H]1[C@H](O)CC(=O)[C@@H]1C/C=C\CCCC(=O)O` [PGE2], for the setting “p.o. in distilled water”, the “Enteropooling ED50” value came out at 130 µg/kg.

In general, ED50 refers to the dose at which the effect has come halfway, by size or by number of responders. Low values mean an effect at a small dose, high ones a need for a large dose.
